From US5084453A, “1-carboxy-1-vinyloxyimino aminothiazole cephalosporin derivatives” (priority 1988, dated 1992)
≈ marks a conversion by molar mass, not a printed value. Like-named read-outs stand apart in the source and are kept apart here.

Experiments:
Assay in all cases: in vitro antibacterial activity, agar plate dilution method
Format in all cases: cell-based
[1] = test system: A. calcoaceticus No. 4; settings: Acinetobacter calcoaceticus
Protocol: (§1) Now, the in vitro antibacterial activities of the compounds of the present invention against various microorganisms, were measured by the following agar plate dilution method.
(§2) One platinum loopfull of each test microorganism incubated overnight in Mueller Hinton broth, was inoculated to Mueller Hinton agar (MH agaer). Such culture media containing various antibiotics in various concentrations were prepared. After incubation at 37° C. for 16 hours, the minimum inhibitory concentrations (MIC μg/ml) were measured.

[2] = test system: E. cloacae 963
Protocol: as §1, §2

[3] = test system: E. cloacae Nek 39*; settings: Enterobacter cloacae
Protocol: as §1, §2

[4] = test system: E. coli CSH(RE45)*; settings: Escherichia coli; 10^6 CFU/ml; β-Lactamase-producing strain; 37° C., 16 hours; read-out: MIC
Protocol: as §1, §2

[5] = test system: E. coli CSH2(RK1)*; settings: Escherichia coli, 16 h
Protocol: as §1, §2

[6] = test system: E. coli GN5482*; settings: Escherichia coli
Protocol: as §1, §2

[7] = test system: E. coli NIHJ JC2; settings: Escherichia coli, NIHJJC2; 10^6 CFU/ml; Mueller Hinton agar, 37° C., 16 hours; read-out: MIC
Protocol: as §1, §2

[8] = test system: K. oxytoca GN10650*; settings: Klebsiella oxytoca
Protocol: as §1, §2

[9] = test system: K. pneumoniae No. 42*; settings: Klebsiella pneumoniae
Protocol: as §1, §2

[10] = test system: K. pneumoniae PC1-602; settings: Klebsiella pneumoniae
Protocol: as §1, §2

[11] = test system: M. morganii GN5407*; settings: Morganella morganii
Protocol: as §1, §2

[12] = test system: P. vulgaris HX-19; settings: Proteus vulgaris
Protocol: as §1, §2

[13] = test system: P. vulgaris No. 33*; settings: Proteus vulgaris
Protocol: as §1, §2

[14] = test system: Ps. aeruginosa AK 109; settings: Pseudomonas aeruginosa
Protocol: as §1, §2

[15] = test system: Ps. aeruginosa AKR17; settings: Pseudomonas aeruginosa
Protocol: as §1, §2

[16] = test system: Ps. aeruginosa IFO3445; settings: Pseudomonas aeruginosa
Protocol: as §1, §2

[17] = test system: Ps. cepacia 23
Protocol: as §1, §2

[18] = test system: S. aureus 209P NIHJ-JC1; settings: Staphylococcus aureus
Protocol: as §1, §2

[19] = test system: S. marcescens IAM 1184; settings: Serratia marcescens
Protocol: as §1, §2

[20] = test system: S. marcescens No. 16-2*; settings: Serratia marcescens
Protocol: as §1, §2

[21] = NO.4, 10^6 CFU/ml, Mueller Hinton agar, 37° C., 16 hours, read-out: MIC
[22] = Enterobacter cloacae, 963, 16 h
[23] = 10^6 CFU/ml, β-Lactamase-producing strain, 37° C., 16 hours, read-out: MIC
[24] = HX19, 10^6 CFU/ml, Mueller Hinton agar, 37° C., 16 hours, read-out: MIC
[25] = AK109, 10^6 CFU/ml, Mueller Hinton agar, 37° C., 16 hours, read-out: MIC
[26] = AKR17, 10^6 CFU/ml, Mueller Hinton agar, 37° C., 16 hours, read-out: MIC
[27] = IFO3445, 10^6 CFU/ml, Mueller Hinton agar, 37° C., 16 hours, read-out: MIC
[28] = Burkholderia cepacia, 23, 10^6 CFU/ml, Mueller Hinton agar, 37° C., 16 hours, read-out: MIC
[29] = 10^6 CFU/ml, Mueller Hinton agar, 37° C., 16 hours, read-out: MIC
[30] = IAM1184, 10^6 CFU/ml, Mueller Hinton agar, 37° C., 16 hours, read-out: MIC
[31] = PC1602, 10^6 CFU/ml, Mueller Hinton agar, 37° C., 16 hours, read-out: MIC
[32] = GN10650, 10^6 CFU/ml, β-Lactamase-producing strain, 37° C., 16 hours, read-out: MIC
[33] = GN5407, 10^6 CFU/ml, β-Lactamase-producing strain, 37° C., 16 hours, read-out: MIC

Structure (SMILES)	MIC [1, 21]	MIC [2, 22]	MIC [4]	MIC [5]	MIC ([6]; GN5482, 16 h)	MIC [7]	MIC ([8]; GN10650, 16 h)	MIC ([11]; GN5407, 16 h)	MIC [12, 24]	MIC [14, 25]	MIC [15, 26]	MIC [17, 28]	MIC [18, 29]	MIC [19, 30]	MIC ([3]; 16 h)	MIC [9, 23]	MIC ([13]; 16 h)	MIC [10, 31]	MIC ([16]; IFO3445, 16 h)	MIC ([20]; 16 h)	also measured
C=C(O/N=C(\C(=O)N[C@@H]1C(=O)N2C(C(=O)O)=C(C[n+]3ccc(CS(=O)(=O)[O-])cc3)CS[C@H]12)c1csc(N)n1)C(=O)O [Example 7, 7β-[2-(2-aminothiazol-4-yl)-2-(1-carboxy-1-vinyloxyimino]acetamido]-3-(4-sulfonatomethyl-1-pyridinio)methyl-3-cephem-4-carboxylic acid (syn-isomer)]	50 µg/mL (≈ 80 µM)	0.1 µg/mL (≈ 0.16 µM)	0.05 µg/mL (≈ 0.08 µM)	0.2 µg/mL (≈ 0.32 µM)	1.56 µg/mL (≈ 2.5 µM)	0.1 µg/mL (≈ 0.16 µM)	0.39 µg/mL (≈ 0.624 µM)	0.025 µg/mL (≈ 0.04 µM)	0.0125 µg/mL (≈ 0.02 µM)	25 µg/mL (≈ 40 µM)	> 100 µg/mL	12.5 µg/mL (≈ 20 µM)	25 µg/mL (≈ 40 µM)	0.0125 µg/mL (≈ 0.02 µM)							MIC [3, 23]: 3.12 µg/mL (≈ 4.99 µM); MIC ([9]; 16 h): 0.39 µg/mL (≈ 0.624 µM); MIC ([10]; PC1602, 16 h): 0.025 µg/mL (≈ 0.04 µM); MIC [13, 23]: 0.0125 µg/mL (≈ 0.02 µM); MIC [16, 27]: 3.12 µg/mL (≈ 4.99 µM); MIC [20, 23]: 3.12 µg/mL (≈ 4.99 µM)
C=C(O/N=C(\C(=O)N[C@@H]1C(=O)N2C(C(=O)O)=C(C[n+]3ccc(CCS(=O)(=O)[O-])cc3)CS[C@H]12)c1csc(N)n1)C(=O)O [Example 8, 7β-[2-(2-aminothiazol-4-yl)-2-(1-carboxy-1-vinyloxyimino)acetamido]-3-[4-(2-sulfonatoethyl)-1-pyridinio]methyl-3-cephem-4-carboxylic acid (syn-isomer)]	12.5 µg/mL (≈ 19.6 µM)	0.2 µg/mL (≈ 0.313 µM)	0.05 µg/mL (≈ 0.0783 µM)	0.05 µg/mL (≈ 0.0783 µM)		0.05 µg/mL (≈ 0.0783 µM)	0.2 µg/mL (≈ 0.313 µM)	0.05 µg/mL (≈ 0.0783 µM)		12.5 µg/mL (≈ 19.6 µM)	> 100 µg/mL	12.5 µg/mL (≈ 19.6 µM)	6.25 µg/mL (≈ 9.79 µM)		0.78 µg/mL (≈ 1.22 µM)	0.39 µg/mL (≈ 0.611 µM)	0.05 µg/mL (≈ 0.0783 µM)				MIC ([6]; GN5482, 10^6 CFU/ml, β-Lactamase-producing strain, 37° C., 16 hours, read-out: MIC): 0.39 µg/mL (≈ 0.611 µM); MIC ([10]; PC1602, 16 h): 0.025 µg/mL (≈ 0.0391 µM); MIC ([12]; HX19, 16 h): 0.025 µg/mL (≈ 0.0391 µM); MIC [16, 27]: 3.12 µg/mL (≈ 4.89 µM); MIC ([19]; IAM1184, 16 h): 0.025 µg/mL (≈ 0.0391 µM); MIC [20, 23]: 3.12 µg/mL (≈ 4.89 µM)
C=C(O/N=C(\C(=O)N[C@@H]1C(=O)N2C(C(=O)[O-])=C(C[n+]3cccc(N)c3)CS[C@H]12)c1csc(N)n1)C(=O)O [Example 9, sodium 7β-[2-(2-aminothiazol-4-yl)-2-(1-carboxylato-1-vinyloxyimino)acetamido]-3-(3-amino-1-5 pyridinio)methyl 3-cephem-4-carboxylate (syn-isomer)]	3.12 µg/mL	0.05 µg/mL	0.0125 µg/mL	0.025 µg/mL	0.2 µg/mL	0.025 µg/mL	0.1 µg/mL	0.39 µg/mL		3.12 µg/mL	> 100 µg/mL	3.12 µg/mL	3.12 µg/mL	< 0.006 µg/mL	0.78 µg/mL		0.0125 µg/mL	< 0.006 µg/mL	0.78 µg/mL	1.56 µg/mL	MIC ([9]; 16 h): 0.1 µg/mL; MIC ([12]; HX19, 16 h): 0.0125 µg/mL
C=C(O/N=C(\C(=O)N[C@@H]1C(=O)N2C(C(=O)[O-])=C(C[n+]3cccc(NC=O)c3)CS[C@H]12)c1csc(N)n1)C(=O)O [Example 10, sodium 7β-[2-(2-aminothiazol-4-yl)-2-(1-carboxylato-1-vinyloxyimino)acetamido]-3-(3-formylamino-1-pyridinio)methyl-3-cephem-4-carboxylate (syn-isomer)]	3.12 µg/mL	0.025 µg/mL	0.0125 µg/mL	0.0125 µg/mL	0.1 µg/mL	0.0125 µg/mL	0.05 µg/mL	0.0125 µg/mL	< 0.006 µg/mL	3.12 µg/mL	> 100 µg/mL	3.12 µg/mL		< 0.006 µg/mL	0.39 µg/mL		0.0125 µg/mL	< 0.006 µg/mL	0.78 µg/mL	1.56 µg/mL	MIC ([9]; 16 h): 0.05 µg/mL; MIC ([18]; 16 h): 1.56 µg/mL
C=C(O/N=C(\C(=O)N[C@@H]1C(=O)N2C(C(=O)O)=C(CSc3nnc(-c4ccc(O)c(O)c4)o3)CS[C@H]12)c1csc(N)n1)C(=O)O [Example 11, disodium 7β-[2-(2-aminothiazol-4-yl)-2-(1-carboxy-1-vinyloxyimino)acetamido]-3-[5-(3,4-dihydroxyphenyl)-1,3,4-oxadiazol-2-yl]thiomethyl-3-cephem-4-carboxylate (syn-isomer)]			0.05 µg/mL	< 0.006 µg/mL	0.1 µg/mL	0.05 µg/mL			< 0.006 µg/mL		3.12 µg/mL	< 0.006 µg/mL	12.5 µg/mL	0.025 µg/mL		0.025 µg/mL		< 0.006 µg/mL	0.39 µg/mL	0.2 µg/mL	MIC ([1]; NO.4, 16 h): 0.1 µg/mL; MIC ([2]; Enterobacter cloacae, 963, 10^6 CFU/ml, Mueller Hinton agar, 37° C., 16 hours, read-out: MIC): 0.025 µg/mL; MIC [3, 23]: 0.025 µg/mL; MIC [8, 32]: 0.025 µg/mL; MIC [11, 33]: 0.0125 µg/mL; MIC [13, 23]: 0.0125 µg/mL; MIC ([14]; AK109, 16 h): 0.2 µg/mL
C=C(O/N=C(\C(=O)N[C@@H]1C(=O)N2C(C(=O)O)=C(CSc3nc(-c4ccc(O)c(O)c4)cs3)CS[C@H]12)c1csc(N)n1)C(=O)O [Example 12, disodium 7β-[2-(2-aminothiazol-4-yl)-2-(1-carboxylato-1-vinyloxyimino)acetamido]-3-[4-(3,4-dihydroxyphenyl)thiazol-2-yl]thiomethyl-3-cephem-4-carboxylate(syn-isomer)]		0.2 µg/mL	0.025 µg/mL	0.025 µg/mL	0.39 µg/mL	0.39 µg/mL			< 0.006 µg/mL	1.56 µg/mL	3.12 µg/mL		3.12 µg/mL	0.05 µg/mL		0.05 µg/mL	0.025 µg/mL	< 0.006 µg/mL	0.78 µg/mL	0.39 µg/mL	MIC ([1]; NO.4, 16 h): 0.2 µg/mL; MIC [3, 23]: 0.1 µg/mL; MIC [8, 32]: 0.1 µg/mL; MIC [11, 33]: 0.05 µg/mL; MIC ([17]; Burkholderia cepacia, 23, 16 h): 0.025 µg/mL
C=C(O/N=C(\C(=O)N[C@@H]1C(=O)N2C(C(=O)O)=C(CSc3nnc(-c4ccc(O)c(O)c4)s3)CS[C@H]12)c1csc(N)n1)C(=O)O [Example 13, disodium 7β-[2-(2-aminothiazol-4-yl)-2-(1-carboxylato-1-vinyloxyimino)acetamido]-3-[5-(3,4-dihydroxyphenyl)-1,3,4-thiadiazol-2-yl]thiomethyl-3-cephem-4-carboxylate (syn-isomer)]		0.05 µg/mL	< 0.006 µg/mL	< 0.006 µg/mL	0.2 µg/mL	0.2 µg/mL	0.025 µg/mL	0.1 µg/mL	< 0.006 µg/mL			< 0.006 µg/mL	3.12 µg/mL		0.05 µg/mL	0.0125 µg/mL	0.025 µg/mL	0.0125 µg/mL	0.78 µg/mL	0.05 µg/mL	MIC ([1]; NO.4, 16 h): 0.1 µg/mL; MIC ([14]; AK109, 16 h): 0.1 µg/mL; MIC ([15]; AKR17, 16 h): 1.56 µg/mL; MIC ([19]; IAM1184, 16 h): 0.025 µg/mL
